Data published in PubChem BioAssay (NCI).
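Growth conditions: 96-well plates. Treatment: test compound, 48 hours, 5 concentrations. Analysis: linear interpolation between bracketing concentrations; unreached endpoints set to highest concentration. The concentration for full growth arrest is given as TGI.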

How the values were obtained:
Experiment in all cases: NCI anticancer screen, dose series, 48 h
786-0 renal = tested on: 786-0 renal
A549 NSCLC = tested on: A549 NSCLC
BT-549 breast = tested on: BT-549 breast
CAKI-1 renal = tested on: CAKI-1 renal
COLO 205 colon = tested on: COLO 205 colon
HCC-2998 colon = tested on: HCC-2998 colon
HL-60(TB) leukemia = tested on: HL-60(TB) leukemia
K-562 leukemia = tested on: K-562 leukemia
MCF7 breast = tested on: MCF7 breast
MDA-MB-231 breast = tested on: MDA-MB-231 breast
MDA-N = tested on: MDA-N
NCI-H226 lung = tested on: NCI-H226 lung
SK-MEL-28 melanoma = tested on: SK-MEL-28 melanoma
SW-620 colon = tested on: SW-620 colon
T-47D breast = tested on: T-47D breast
UACC-62 melanoma = tested on: UACC-62 melanoma
HOP-92 NSCLC = tested on: HOP-92 NSCLC
LOX IMVI melanoma = tested on: LOX IMVI melanoma
OVCAR-5 ovarian = tested on: OVCAR-5 ovarian

| Compound | TGI (786-0 renal) [µM] | TGI (A549 NSCLC) [µM] | TGI (BT-549 breast) [µM] | TGI (CAKI-1 renal) [µM] | TGI (COLO 205 colon) [µM] | TGI (HCC-2998 colon) [µM] | TGI (HL-60(TB) leukemia) [µM] | TGI (K-562 leukemia) [µM] | TGI (MCF7 breast) [µM] | TGI (MDA-MB-231 breast) [µM] | TGI (MDA-N) [µM] | TGI (NCI-H226 lung) [µM] | TGI (SK-MEL-28 melanoma) [µM] | TGI (SW-620 colon) [µM] | TGI (T-47D breast) [µM] | TGI (UACC-62 melanoma) [µM] | TGI (HOP-92 NSCLC) [µM] | TGI (LOX IMVI melanoma) [µM] | TGI (OVCAR-5 ovarian) [µM] |
| --- | --- | --- | --- | --- | --- | --- | --- | --- | --- | --- | --- | --- | --- | --- | --- | --- | --- | --- | --- |
| COC(=O)c1ccc(/C=C2\Oc3cc(O)ccc3C2=O)cc1 | > 100 | > 100 | > 100 | > 100 | > 100 | > 100 | > 100 | > 100 | > 100 | > 100 | > 100 | > 100 | > 100 | > 100 | > 100 | > 100 |  |  |  |
| CCc1ccc(/C=C/C(=O)C2CN(CC)CCC2(O)/C=C/c2ccc(CC)cc2)cc1 (centres undefined) | 3.22 | 20 | 11.2 | 18.7 | 6.21 | 3.99 | > 24.6 | 8.94 | 7.34 | 5.07 | 10.6 | 20.1 | 3.04 | 4.4 | 10.1 | 16.2 | 5.33 | 2.9 | 9.69 |
| CC1OC(OCC2OC(Oc3ccc(C4CC(=O)c5c(O)cc(O)cc5O4)cc3O)C(O)C(O)C2O)C(O)C(O)C1O (centres undefined) | > 100 | > 100 | > 100 | > 100 | > 100 | > 100 | > 100 | > 100 | > 100 | > 100 | > 100 | > 100 | > 100 | > 100 | > 100 | > 100 | > 100 | > 100 | > 100 |
| Nc1c(Br)cc(-c2nc3ccccc3s2)cc1Br | > 100 | > 100 | > 100 | > 100 | > 100 | > 100 | > 100 | > 100 | > 100 | > 100 | > 100 | > 100 | > 100 | > 100 | > 100 | > 100 | > 100 |  | > 100 |
| Cc1cccc(/C=N/NC(=S)N(C)CCc2ccccn2)n1 | > 100 | > 100 | > 100 | 32.7 | > 100 | > 100 |  | > 45.6 | > 100 | > 100 | > 100 | 19.6 | > 100 | > 100 | > 100 | 1.02 | > 83.9 | > 100 | > 100 |
| COCOc1c(C(OCOC)c2cnc(Sc3ccccc3)n2C)ccc(OC)c1OC (centres undefined) | > 100 | > 100 | > 100 | > 100 |  | > 100 | > 100 | > 100 | > 100 | > 100 | > 100 | > 100 | > 100 | > 100 | > 100 | > 100 | > 100 | > 100 | > 100 |
| C=C(CO)[C@H]1Oc2ccc(C(C)=O)cc2[C@@H]1O | > 100 | > 100 | > 100 | > 100 | > 100 | > 100 | > 100 | > 100 | > 100 | > 100 | 56.5 | > 100 | > 100 | > 100 | > 100 | > 100 |  | > 100 | > 100 |
| COCCOC1=C(Cl)C(=O)c2c(O)ccc(O)c2C1=O | 3.23 | 28.5 | 5.44 | 1.11 | 2.34 | 15.6 |  |  | 3.04 | 3.2 | 3.03 | 28.9 | 5.07 | 1.4 | 6.61 | 10.7 | 2.2 | 3.28 | 13.7 |
| CCOC(=O)C(NC(=O)c1cccc(Cl)c1)(N1CCN(c2cc3c(cc2F)c(=O)c(C(=O)O)cn3C2CC2)CC1)C(F)(F)F (centres undefined) | 28.3 | 50.5 | 38.4 | 36.2 | 30.2 | 34.8 | 6.64 | 20.1 |  | 34.2 | 29.4 | 40.3 | 32.4 | 27.2 | 48.9 | 42.2 | 34.6 |  | 31.1 |
| O=C(N/N=C/c1ccc(Cl)cc1)c1ccccc1Nc1ccccc1C(=O)N/N=C/c1ccc(Cl)cc1 | > 100 | > 100 | > 100 | > 100 | > 100 | > 100 |  | > 100 | > 100 | > 100 | > 100 | > 100 | > 100 | > 100 | > 100 | > 100 | > 100 | > 100 | > 100 |
| COc1ccc2c(c1)CCc1c-2n(CCN2CCOCC2)c2ccc(OC)cc12 | > 100 | > 100 | > 100 | > 100 | > 100 | 33.2 |  | 54 | > 100 | > 100 | > 100 | > 100 | > 100 | > 100 | > 100 | > 100 | > 100 |  | > 100 |
| CSc1ccc(/C=C2\N=C(c3ccccc3)N(/N=C3\C(=O)Nc4ccccc43)C2=O)cc1 | > 100 | > 100 | > 100 | > 100 | > 100 | > 100 | > 100 | > 100 | > 100 | > 100 | > 100 |  | > 100 | > 100 | > 100 | > 100 | > 100 | > 100 | > 100 |
| O=c1c2ccccc2nc2sc(/N=C/C=C/c3ccccc3)nn12 | > 100 | > 100 | > 100 | > 100 | > 100 | > 100 |  | > 100 | > 100 |  | > 100 | > 100 | > 100 | > 100 | > 100 | > 100 | > 100 | > 100 | > 100 |
| O=c1c2n[nH]nc2nc2n1CC(c1ccccc1)S2 (centres undefined) | > 100 | > 100 | > 100 | 77.6 | > 100 | > 100 | > 100 | > 100 | > 100 | > 100 | > 100 | > 100 | > 100 | > 100 | > 100 | > 100 |  | > 100 | > 100 |
| COC(=O)N/N=C(\c1ccccc1)c1ccc(OC)cc1 | > 100 | > 100 | > 100 | > 100 | > 100 | > 100 | > 100 | > 100 | > 100 | > 100 | > 100 | > 100 | > 100 | > 100 | > 100 | > 100 |  | > 100 | > 100 |
| N#C/C(C(=O)Nc1ccc(Cl)cc1)=C(/N)N1CCOCC1 | > 100 | > 100 | > 100 | > 100 | > 100 | > 100 |  | > 100 | > 100 |  | > 100 | > 100 | > 100 | > 100 | > 100 | > 100 | > 100 | > 100 | > 100 |
| N=c1oc2ccc(Cl)cc2cc1C(N)=O | 73 | > 100 | > 100 | > 100 | > 100 | 47.4 | > 100 | > 100 |  | 69 | 69.1 | 78.1 | > 100 | > 100 | 94.6 | 41.3 | > 100 | > 100 | > 100 |
| NS(=O)(=O)c1nnc(NS(=O)(=O)c2ccc(Cl)cc2)s1 | > 100 | > 100 | > 100 | > 100 | > 100 | > 100 |  | > 100 | > 100 | > 100 | > 100 | > 100 | > 100 | > 100 | > 100 | > 100 | > 100 | > 100 | > 100 |
| CC(=O)O[C@H]1C(=O)[C@@]2(C)C(C(OC(=O)c3ccccc3)[C@]3(O)CC(OC(=O)C(O)C(NC(=O)c4ccccc4)c4cccc(Cl)c4)C(C)=C1C3(C)C)[C@]1(OC(C)=O)CO[C@@H]1C[C@@H]2O (some centres undefined) | > 10 | > 10 | > 10 | > 10 | > 10 | > 10 | 4.88 | > 10 | > 10 | > 10 | 3.46 | > 10 |  | > 10 | > 10 | > 10 |  | > 10 | > 10 |
| N#CCC1(c2ccc(Cl)cc2)NC(=O)c2ccccc21 (centres undefined) | > 100 | > 100 | > 100 | > 100 | > 100 |  | > 100 | > 100 | > 100 | > 100 | > 100 | > 100 | > 100 | > 100 | > 100 | > 100 | > 100 | > 100 | > 100 |
| C[N+](C)(C)CCOP(=O)([O-])OCCNC(=O)c1ccc2ccccc2c1 | > 100 | > 100 | > 100 | > 100 | > 100 | > 100 | > 100 | > 100 | > 100 | > 100 | > 100 | > 100 | > 100 | > 100 | > 100 | > 100 |  | > 100 | > 100 |
| CSc1nc(Br)nc2ncn(C3CC(Oc4ccc(C)cc4)C(COc4ccc(C)cc4)O3)c12 (centres undefined) | > 100 | > 100 | > 100 | > 100 | > 100 | > 100 | > 100 |  | > 100 | > 100 | > 100 | > 100 | > 100 | > 100 | > 100 | > 100 | > 100 | > 100 | > 100 |
| O=C(NNC(=O)c1ccccc1O)c1ccco1 | > 100 | > 100 | > 100 | > 100 | > 100 |  | > 100 | > 100 | > 100 | > 100 | > 100 | > 100 | > 100 | > 100 | > 100 | > 100 |  | > 100 | > 100 |
| CCCCCCC1CC(=O)C1(Cl)Cl (centres undefined) | 32.2 | > 100 | 48.6 | 33.3 |  | 57.4 | 44.1 | > 100 | 63.7 | 68.5 | 85 | > 100 |  | > 100 | > 100 | 47.8 |  | 44.6 | > 100 |
| COC(=O)C(/C(=N/N)C(=O)Nc1cccc(O)c1)c1nc2ccccc2[nH]c1=O (centres undefined) | > 100 | > 100 | > 100 | > 100 |  | > 100 | > 100 | > 100 | > 100 | > 100 | > 100 | > 100 | > 100 | > 100 | > 100 | > 100 | > 100 | > 100 | > 100 |
| CCCCc1ccc(Nc2nc(Cl)c3ncn(C4CC(Oc5ccc(C)cc5)C(COc5ccc(C)cc5)O4)c3n2)cc1 (centres undefined) | > 100 | > 100 | > 100 | 30.9 | > 100 | > 100 | > 100 | > 100 | > 100 | > 100 | > 100 | > 100 |  | > 100 | > 100 | > 100 | > 100 | > 100 | > 100 |
